From PubChem BioAssay AID2060485 (Molecular Pharmacology Branch, DTP, NCI, 2025)

Test system: A375 multi-cell spheroids with HUVEC/MSC, viability
Experiment: Anticancer human tumor A375 cell line growth inhibition [GQUAD];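 further: spheroids exposed to compounds for seven days before readout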
Details: for IC50: curve of first compound; for viability, T/C: stronger effect = lower value
Procedure, shortened: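 Tumor cells were grown as complex spheroids with HUVEC endothelial cells and mesenchymal stem cells as stroma. G-quadruplex stabilizers were combined with targeted agents over half-log dilutions from near the clinical Cmax, or from 10 microM.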

[1] = second compound 0.0316 µM, first compound 0.0316 µM
[2] = second compound 0.0316 µM, first compound 0.316 µM
[3] = second compound 0.1 µM, first compound 0.0316 µM
[4] = second compound 0.1 µM, first compound 0.316 µM
[5] = second compound 0.316 µM, first compound 0.0316 µM
[6] = second compound 0.316 µM, first compound 0.316 µM
[7] = second compound 1 µM, first compound 0.0316 µM
[8] = second compound 1 µM, first compound 0.316 µM
[9] = second compound 3.16 µM, first compound 0.0316 µM
[10] = second compound 3.16 µM, first compound 0.316 µM
[11] = second compound 10 µM, first compound 0.0316 µM
[12] = second compound 10 µM, first compound 0.316 µM
[13] = second compound 0.0316 µM, first compound 0.000999 µM
[14] = second compound 0.0316 µM, first compound 0.00316 µM
[15] = second compound 0.0316 µM, first compound 0.00999 µM
[16] = second compound 0.0316 µM, first compound 0.0999 µM
[17] = second compound 0.1 µM, first compound 0.000999 µM
[18] = second compound 0.1 µM, first compound 0.00316 µM
[19] = second compound 0.1 µM, first compound 0.00999 µM
[20] = second compound 0.1 µM, first compound 0.0999 µM
[21] = second compound 0.316 µM, first compound 0.000999 µM
[22] = second compound 0.316 µM, first compound 0.00316 µM
[23] = second compound 0.316 µM, first compound 0.00999 µM
[24] = second compound 0.316 µM, first compound 0.0999 µM
[25] = second compound 1 µM, first compound 0.000999 µM
[26] = second compound 1 µM, first compound 0.00316 µM
[27] = second compound 1 µM, first compound 0.00999 µM
[28] = second compound 1 µM, first compound 0.0999 µM
[29] = second compound 3.16 µM, first compound 0.000999 µM
[30] = second compound 3.16 µM, first compound 0.00316 µM
[31] = second compound 3.16 µM, first compound 0.00999 µM
[32] = second compound 3.16 µM, first compound 0.0999 µM
[33] = second compound 10 µM, first compound 0.000999 µM
[34] = second compound 10 µM, first compound 0.00316 µM
[35] = second compound 10 µM, first compound 0.00999 µM
[36] = second compound 10 µM, first compound 0.0999 µM

With CC(=O)O[C@H]1C(=O)[C@@]2(C)[C@H]([C@H](OC(=O)c3ccccc3)[C@]3(O)C[C@H](OC(=O)[C@H](O)[C@@H](NC(=O)c4ccccc4)c4ccccc4)C(C)=C1C3(C)C)[C@]1(OC(C)=O)CO[C@@H]1C[C@@H]2O + CN(C)c1ccc(Nc2c3ccc(NC(=O)CCN4CCCC4)cc3nc3cc(NC(=O)CCN4CCCC4)ccc23)cc1 the IC50 (second compound 0.0316 µM) was 61.2 nM, the IC50 (second compound 0.1 µM) was 61.3 nM and the IC50 (second compound 0.316 µM) was 61 nM. For the same compound, the IC50 (second compound 1 µM) was 61.7 nM, the IC50 (second compound 3.16 µM) was 65.2 nM and the IC50 (second compound 10 µM) was 55.5 nM. For the same compound, the viability, T/C [1] was 86.3%, the viability, T/C (second compound 0.0316 µM, first compound 0.1 µM) was 23.1% and the viability, T/C [2] was 12.3%. For the same compound, the viability, T/C (second compound 0.0316 µM, first compound 1 µM) was 11%, the viability, T/C (second compound 0.0316 µM, first compound 3.16 µM) was 11.4% and the viability, T/C (second compound 0.0316 µM, first compound 10 µM) was 10.6%. For the same compound, the viability, T/C [3] was 86.5%, the viability, T/C (second compound 0.1 µM, first compound 0.1 µM) was 23% and the viability, T/C [4] was 12.1%. It also gave a viability, T/C (second compound 0.1 µM, first compound 1 µM) of 13.2%, a viability, T/C (second compound 0.1 µM, first compound 3.16 µM) of 11.7% and a viability, T/C (second compound 0.1 µM, first compound 10 µM) of 12.9%. It also gave a viability, T/C [5] of 88.1%, a viability, T/C (second compound 0.316 µM, first compound 0.1 µM) of 21.3% and a viability, T/C [6] of 12.2%. For the same compound, the viability, T/C (second compound 0.316 µM, first compound 1 µM) was 10.6%, the viability, T/C (second compound 0.316 µM, first compound 3.16 µM) was 12.8% and the viability, T/C (second compound 0.316 µM, first compound 10 µM) was 15%. It also gave a viability, T/C [7] of 87.5%, a viability, T/C (second compound 1 µM, first compound 0.1 µM) of 23% and a viability, T/C [8] of 10.2%. The viability, T/C (second compound 1 µM, first compound 1 µM) was 12.8%, the viability, T/C (second compound 1 µM, first compound 3.16 µM) was 10.4% and the viability, T/C (second compound 1 µM, first compound 10 µM) was 12.9%. For the same compound, the viability, T/C [9] was 95.4%, the viability, T/C (second compound 3.16 µM, first compound 0.1 µM) was 23.2% and the viability, T/C [10] was 11.7%. For the same compound, the viability, T/C (second compound 3.16 µM, first compound 1 µM) was 10.7%, the viability, T/C (second compound 3.16 µM, first compound 3.16 µM) was 11.6% and the viability, T/C (second compound 3.16 µM, first compound 10 µM) was 11.9%. The viability, T/C [11] was 76.8%, the viability, T/C (second compound 10 µM, first compound 0.1 µM) was 22% and the viability, T/C [12] was 13.3%. For the same compound, the viability, T/C (second compound 10 µM, first compound 1 µM) was 11.7%, the viability, T/C (second compound 10 µM, first compound 3.16 µM) was 10.9% and the viability, T/C (second compound 10 µM, first compound 10 µM) was 12.4%.

CC[C@@]1(O)C(=O)OCc2c1cc1n(c2=O)Cc2cc3c(CN(C)C)c(O)ccc3nc2-1 + CN(C)c1ccc(Nc2c3ccc(NC(=O)CCN4CCCC4)cc3nc3cc(NC(=O)CCN4CCCC4)ccc23)cc1 showed an IC50 (second compound 0.0316 µM) of 44.7 nM, an IC50 (second compound 0.1 µM) of 45.3 nM and an IC50 (second compound 0.316 µM) of 39.6 nM. For the same compound, the IC50 (second compound 1 µM) was 47.4 nM, the IC50 (second compound 3.16 µM) was 49.5 nM and the IC50 (second compound 10 µM) was 45.9 nM. The viability, T/C [13] was 104%, the viability, T/C [14] was 107% and the viability, T/C [15] was 104%. The viability, T/C [1] was 63.4%, the viability, T/C [16] was 18.5% and the viability, T/C [2] was 9.04%. It also gave a viability, T/C [17] of 112%, a viability, T/C [18] of 105% and a viability, T/C [19] of 96.2%. For the same compound, the viability, T/C [3] was 64.2%, the viability, T/C [20] was 20.4% and the viability, T/C [4] was 10.9%. The viability, T/C [21] was 101%, the viability, T/C [22] was 107% and the viability, T/C [23] was 108%. For the same compound, the viability, T/C [5] was 58%, the viability, T/C [24] was 19.8% and the viability, T/C [6] was 10.9%. For the same compound, the viability, T/C [25] was 114%, the viability, T/C [26] was 106% and the viability, T/C [27] was 102%. The viability, T/C [7] was 67%, the viability, T/C [28] was 18.9% and the viability, T/C [8] was 9.06%. For the same compound, the viability, T/C [29] was 103%, the viability, T/C [30] was 102% and the viability, T/C [31] was 102%. The viability, T/C [9] was 68.8%, the viability, T/C [32] was 20.6% and the viability, T/C [10] was 12.7%. The viability, T/C [33] was 102%, the viability, T/C [34] was 103% and the viability, T/C [35] was 107%. It also gave a viability, T/C [11] of 63.2%, a viability, T/C [36] of 22.4% and a viability, T/C [12] of 9.58%.

For CCc1c2c(nc3ccc(O)cc13)-c1cc3c(c(=O)n1C2)COC(=O)[C@]3(O)CC + CN(C)c1ccc(Nc2c3ccc(NC(=O)CCN4CCCC4)cc3nc3cc(NC(=O)CCN4CCCC4)ccc23)cc1, the IC50 (second compound 0.0316 µM) was under 0.999 nM, the IC50 (second compound 0.1 µM) was under 0.999 nM and the IC50 (second compound 0.316 µM) was under 0.999 nM. For the same compound, the IC50 (second compound 1 µM) was under 0.999 nM, the IC50 (second compound 3.16 µM) was under 0.999 nM and the IC50 (second compound 10 µM) was under 0.999 nM. For the same compound, the viability, T/C [13] was 41.2%, the viability, T/C [14] was 16.1% and the viability, T/C [15] was 10.6%. It also gave a viability, T/C [1] of 15%, a viability, T/C [16] of 5.91% and a viability, T/C [2] of 0.85%. The viability, T/C [17] was 39%, the viability, T/C [18] was 14.4% and the viability, T/C [19] was 11.6%. The viability, T/C [3] was 13.6%, the viability, T/C [20] was 5.7% and the viability, T/C [4] was 0.92%. For the same compound, the viability, T/C [21] was 40.8%, the viability, T/C [22] was 14.2% and the viability, T/C [23] was 11.6%. For the same compound, the viability, T/C [5] was 15.8%, the viability, T/C [24] was 5.11% and the viability, T/C [6] was 1.17%. It also gave a viability, T/C [25] of 44.3%, a viability, T/C [26] of 17.9% and a viability, T/C [27] of 12.2%. It also gave a viability, T/C [7] of 15.3%, a viability, T/C [28] of 5% and a viability, T/C [8] of 0.92%. For the same compound, the viability, T/C [29] was 45.6%, the viability, T/C [30] was 14.8% and the viability, T/C [31] was 10.9%. The viability, T/C [9] was 12.6%, the viability, T/C [32] was 6.28% and the viability, T/C [10] was 1.02%. The viability, T/C [33] was 46.9%, the viability, T/C [34] was 18.2% and the viability, T/C [35] was 10.9%. It also gave a viability, T/C [11] of 13%, a viability, T/C [36] of 6.82% and a viability, T/C [12] of 0.96%.
